Target: XIAP BIR3 (N-His-Tb-BIR3(241-356, XIAP)) (Homo sapiens (Human), UniProt P98170)
Assay type: binding
Conditions: 130 nM N-His-Tb-BIR3(241-356, XIAP), 1.4 nM fluoresceinated modified SMAC peptide, 60 minutes room temperature; read-out: XIAP BIR3 FPA IC50

Chain of XIAP BIR3 (N-His-Tb-BIR3(241-356, XIAP)) (P98170 241-356): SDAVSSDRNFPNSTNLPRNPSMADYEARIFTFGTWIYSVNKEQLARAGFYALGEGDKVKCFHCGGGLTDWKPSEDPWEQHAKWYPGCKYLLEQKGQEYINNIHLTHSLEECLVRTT

| SMILES | IC50 [nM] |
| --- | --- |
| CN[C@@H](C)C(=O)N[C@H](C(=O)N1C[C@@H](NC(=O)c2ccc(CN(C(=O)[C@@H]3Cc4ccccc4CN3C(=O)[C@@H](NC(=O)[C@H](C)NC)C(C)(C)C)[C@@H](C)c3cccc(Cl)c3)cc2)C[C@H]1C(=O)N[C@@H]1CCCc2ccccc21)C(C)(C)C [Example 18, (S)-N-((S)-1-(3-Chlorophenyl)ethyl)-2-((S)-3,3-dimethyl-2-((S)-2-(methylamino)propanamido)butanoyl)-N-(4-(((3S,5S)-1-((S)-3,3-dimethyl-2-((S)-2-(methylamino)propanamido)butanoyl)-5-(((R)-1,2,3,4-tetrahydro-naphthalen-1-yl)carbamoyl)pyrrolidin-3-yl)carbamoyl)benzyl)-1,2,3,4-tetrahydro-isoquinoline-3-carboxamide] | 120 |
| CN[C@@H](C)C(=O)N[C@H](C(=O)N1CCc2ccccc2[C@H]1C(=O)N(Cc1ccc(C(=O)N[C@H]2C[C@@H](C(=O)N[C@@H]3CCCc4ccccc43)N(C(=O)[C@@H](NC(=O)[C@H](C)NC)C(C)(C)C)C2)cc1)[C@H](C)Cc1ccccc1F)C(C)(C)C [Example 27, (S)-2-((S)-3,3-Dimethyl-2-((S)-2-(methylamino)propanamido)butanoyl)-N-(4-(((3S,5S)-1-((S)-3,3-dimethyl-2-((S)-2-(methylamino)propanamido)butanoyl)-5-(((R)-1,2,3,4-tetrahydro-naphthalen-1-yl)carbamoyl)pyrrolidin-3-yl)carbamoyl)benzyl)-N-((R)-1-(2-fluorophenyl)propan-2-yl)-1,2,3,4-tetrahydro-isoquinoline-1-carboxamide] | 90 |
| CN[C@@H](C)C(=O)N[C@H](C(=O)N1C[C@@H](NC(=O)c2ccc(CN(C(=O)[C@@H]3Cc4ccccc4CN3C(=O)[C@@H](NC(=O)[C@H](C)NC)C(C)(C)C)[C@H](C)c3ccccc3)cc2)C[C@H]1C(=O)N[C@@H]1CCCc2ccccc21)C(C)(C)C [Example 23, (S)-2-((S)-3,3-Dimethyl-2-((S)-2-(methylamino)propanamido)butanoyl)-N-(4-(((3S,5S)-1-((S)-3,3-dimethyl-2-((S)-2-(methylamino)propanamido)butanoyl)-5-(((R)-1,2,3,4-tetra-hydronaphthalen-1-yl)carbamoyl)pyrrolidin-3-yl)carbamoyl)benzyl)-N-((R)-1-phenylethyl)-1,2,3,4-tetra-hydroisoquinoline-3-carboxamide] | 120 |
| CN[C@@H](C)C(=O)N[C@H](C(=O)N1C[C@@H](NC(=O)c2ccc(CN(C(=O)[C@@H]3Cc4ccccc4CN3C(=O)[C@@H](NC(=O)[C@H](C)NC)C(C)(C)C)[C@H](C)c3ccc(F)cc3)cc2)C[C@H]1C(=O)N[C@@H]1CCCc2ccccc21)C(C)(C)C [Example 4, (S)-2-((S)-3,3-Dimethyl-2-((S)-2-(methylamino)propanamido)butanoyl)-N-(4-(((3S,5S)-1-((S)-3,3-dimethyl-2-((S)-2-(methylamino)propanamido)butanoyl)-5-(((R)-1,2,3,4-tetrahydronaphthalen-1-yl)carbamoyl)pyrrolidin-3-yl)carbamoyl)benzyl)-N-((R)-1-(4-fluorophenyl)ethyl)-1,2,3,4-tetrahydroisoquinoline-3-carboxamide] | 100 |

Source: patent US9603889B2, “IAP antagonists” (BRISTOL-MYERS SQUIBB COMPANY, priority 2012, dated 2017)
